ChEMBL document CHEMBL1156482, “Molecular mechanism of action of monocyclam versus bicyclam non-peptide antagonists in the CXCR4 chemokine receptor” (J Biol Chem, 2007)

Assays:
[1] = system: C-X-C chemokine receptor type 4 (Homo sapiens), P61073 [Q200W]; assay: (§1) Antagonist activity at human CXCR4 Q200W mutant expressed in COS7 cells coexpressing G protein Gqi4myr assessed as inhibition of CXCL12-induced phosphatidylinositol turnover; format: functional, cell-based; details: COS-7
[2] = molecular target: C-X-C chemokine receptor type 4 (Homo sapiens, UniProt P61073, Q200W); assay: as §1; format: functional, cell-based, COS-7
[3] = system: Human immunodeficiency virus 1; assay: Antiviral activity against HIV1 NDK infected in U87.CD4 cells expressing human CXCR4 D171ND262N mutant; format: functional, organism-based; details: Human immunodeficiency virus 1, NDK
[4] = molecular target: C-X-C chemokine receptor type 4 (Homo sapiens, UniProt P61073, I259A); assay: (§2) Antagonist activity at transmembrane domain 6 of human CXCR4 I259A mutant expressed in COS7 cells coexpressing G protein Gqi4myr assessed as inhibition of CXCL12-induced phosphatidylinositol turnover; format: functional, cell-based, COS-7
[5] = system: C-X-C chemokine receptor type 4 (Homo sapiens), P61073 [I259A]; assay: as §2; format: functional, cell-based; details: COS-7
[6] = system: Human immunodeficiency virus 1; assay: Antiviral activity against HIV1 NL43 infected in U87.CD4 cells expressing human CXCR4 D262N mutant; format: functional, organism-based; details: Human immunodeficiency virus 1, NL43, U87.CD4
[7] = molecular target: C-X-C chemokine receptor type 4 (Homo sapiens, UniProt P61073, E288A); assay: (§3) Antagonist activity at human CXCR4 E288A mutant expressed in COS7 cells coexpressing G protein Gqi4myr assessed as inhibition of CXCL12-induced phosphatidylinositol turnover; format: functional, cell-based, COS-7
[8] = system: C-X-C chemokine receptor type 4 (Homo sapiens), P61073 [E288A]; assay: as §3; format: functional, cell-based; details: COS-7
[9] = system: C-X-C chemokine receptor type 4 (Homo sapiens), P61073 [Y255A]; assay: (§4) Displacement of [125I]12G5 antibody from transmembrane domain 6 of human CXCR4 Y255A mutant expressed in COS7 cells; format: cell-based; details: COS-7
[10] = molecular target: C-X-C chemokine receptor type 4 (Homo sapiens, UniProt P61073, Y255A); assay: as §4; format: cell-based, COS-7
[11] = system: Human immunodeficiency virus 1; assay: Antiviral activity against HIV1 NDK infected in U87.CD4 cells expressing human CXCR4 E288A mutant; format: functional, organism-based; details: Human immunodeficiency virus 1, NDK
[12] = system: Human immunodeficiency virus 1; assay: Antiviral activity against HIV1 clinical isolate 10 infected in U87.CD4 cells expressing human CXCR4 D171ND262N mutant; format: functional, organism-based; details: Human immunodeficiency virus 1, U87.CD4
[13] = system: C-X-C chemokine receptor type 4 (Homo sapiens), P61073 [I259W]; assay: (§5) Antagonist activity at human CXCR4 I259W mutant expressed in COS7 cells coexpressing G protein Gqi4myr assessed as inhibition of CXCL12-induced phosphatidylinositol turnover; format: functional, cell-based; details: COS-7
[14] = molecular target: C-X-C chemokine receptor type 4 (Homo sapiens, UniProt P61073, I259W); assay: as §5; format: functional, cell-based, COS-7
[15] = system: C-X-C chemokine receptor type 4 (Homo sapiens), P61073 [F172A]; assay: (§6) Antagonist activity at human CXCR4 F172A mutant expressed in COS7 cells coexpressing G protein Gqi4myr assessed as inhibition of CXCL12-induced phosphatidylinositol turnover; format: functional, cell-based; details: COS-7
[16] = molecular target: C-X-C chemokine receptor type 4 (Homo sapiens, UniProt P61073, F172A); assay: as §6; format: functional, cell-based, COS-7
C-X-C chemokine receptor type 4 (Homo sapiens, UniProt P61073, F172A), sequence (P61073 whole entry F172A): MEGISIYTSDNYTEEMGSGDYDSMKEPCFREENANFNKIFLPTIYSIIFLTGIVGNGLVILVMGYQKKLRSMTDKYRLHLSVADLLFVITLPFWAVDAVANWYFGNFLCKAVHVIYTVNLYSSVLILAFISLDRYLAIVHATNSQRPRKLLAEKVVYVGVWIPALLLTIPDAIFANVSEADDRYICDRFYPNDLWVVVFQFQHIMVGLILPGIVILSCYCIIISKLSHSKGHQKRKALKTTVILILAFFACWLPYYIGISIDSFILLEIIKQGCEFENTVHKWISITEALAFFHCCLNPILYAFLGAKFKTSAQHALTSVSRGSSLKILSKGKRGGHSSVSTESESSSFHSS

C-X-C chemokine receptor type 4 (Homo sapiens), P61073 [F172A], sequence (P61073 whole entry F172A): as above
C-X-C chemokine receptor type 4 (Homo sapiens), P61073 [I259W], sequence (P61073 whole entry I259W): as the sequence (P61073 whole entry F172A) above, with A172F, I259W counted along it
C-X-C chemokine receptor type 4 (Homo sapiens, UniProt P61073, I259W), sequence (P61073 whole entry I259W): as the sequence (P61073 whole entry F172A) above, with A172F, I259W counted along it
C-X-C chemokine receptor type 4 (Homo sapiens, UniProt P61073, E288A), sequence (P61073 whole entry E288A): as the sequence (P61073 whole entry F172A) above, with A172F, E288A counted along it
C-X-C chemokine receptor type 4 (Homo sapiens), P61073 [E288A], sequence (P61073 whole entry E288A, the tested form may be a part): as the sequence (P61073 whole entry F172A) above, with A172F, E288A counted along it
C-X-C chemokine receptor type 4 (Homo sapiens, UniProt P61073, Y255A), sequence (P61073 whole entry Y255A): as the sequence (P61073 whole entry F172A) above, with A172F, Y255A counted along it
C-X-C chemokine receptor type 4 (Homo sapiens), P61073 [Y255A], sequence (P61073 whole entry Y255A, the tested form may be a part): as the sequence (P61073 whole entry F172A) above, with A172F, Y255A counted along it
C-X-C chemokine receptor type 4 (Homo sapiens), P61073 [Q200W], sequence (P61073 whole entry Q200W): as the sequence (P61073 whole entry F172A) above, with A172F, Q200W counted along it
C-X-C chemokine receptor type 4 (Homo sapiens, UniProt P61073, Q200W), sequence (P61073 whole entry Q200W): as the sequence (P61073 whole entry F172A) above, with A172F, Q200W counted along it
C-X-C chemokine receptor type 4 (Homo sapiens), P61073 [I259A], sequence (P61073 whole entry I259A): as the sequence (P61073 whole entry F172A) above, with A172F, I259A counted along it
C-X-C chemokine receptor type 4 (Homo sapiens, UniProt P61073, I259A), sequence (P61073 whole entry I259A, the tested form may be a part): as the sequence (P61073 whole entry F172A) above, with A172F, I259A counted along it

c1ccc(CNCc2ccc(CN3CCCNCCNCCCNCC3)cc2)nc1
logIC50 [1]: -6.65 | Ki [2]: 220 nM | IC50 [3]: 4640 nM | Ki [4]: 30 nM | logIC50 [5]: -7.55 | IC50 [6]: 38 nM | Ki [7]: 1900 nM | logIC50 [8]: -5.17 | logKi [9]: -6.35 | Ki [10]: 450 nM | IC50 [11]: > 5500 nM | IC50 [12]: 4040 nM | logIC50 [13]: -7.08 | Ki [14]: 80 nM | logIC50 [15]: -7.93 | Ki [16]: 10 nM
